According to article PMC8835499, “Challenging Approach to the Development of Novel Estrogen Receptor Modulators Based on the Chemical Properties of Guaiazulene” (International Journal of Molecular Sciences, 2022):

Target: T1, estrogen receptor α (ERα) (Homo sapiens, UniProt P03372)
T1 construct: gene ESR1; ERα LBD (human recombinant ERα)
T1 sequence (P03372 311-547 limits assumed): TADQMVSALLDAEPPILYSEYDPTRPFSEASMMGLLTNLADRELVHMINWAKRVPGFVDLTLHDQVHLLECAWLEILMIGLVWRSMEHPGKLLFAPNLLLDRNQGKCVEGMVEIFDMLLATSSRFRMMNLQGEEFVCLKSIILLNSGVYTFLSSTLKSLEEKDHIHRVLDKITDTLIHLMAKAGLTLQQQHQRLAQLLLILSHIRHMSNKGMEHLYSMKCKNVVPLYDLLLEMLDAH
Assay: competitive radioligand binding assay with [3H][…]β-estradiol (nitrocellulose filtration)

IC50: 1.22 nM
Compound: Cc1cc(C=C(c2ccc(O)cc2)c2ccc(O)cc2)c2c(C)ccc(C(C)C)cc1-2 [Az-01, 4,4′-(2-(5-Isopropyl-3,8-dimethylazulen-1-yl)ethene-1,1-diyl)diphenol]
